Experimental data as given in article PMC9458111, “New 1,2,3-Triazole-Coumarin-Glycoside Hybrids and Their 1,2,4-Triazolyl Thioglycoside Analogs Targeting Mitochondria Apoptotic Pathway: Synthesis, Anticancer Activity and Docking Simulation” (Molecules, 2022).

Legend:
[1] = test system: Bax protein in MCF-7 cells; assay: Bax protein level in MCF-7 cells (ELISA); assay type: cell-based, human; details: MCF-7, 19.6 µM (IC50), 24 h
Method: (§1) Referring to the cytotoxicity results, the 1,2,4-triazole-thioglycoside derivative 10 has a mitochondria-apoptotic effect on breast cancer cells through reduction of MTT by a mitochondrial enzyme. […] Along with that, such derivative elevated the release of cytochrome c into the cytosol in the treated MCF-7, in comparison with untreated one from 0.176 to 0.766 ng/ml due to disturbing mitochondrial outer membrane permeability (MOMP). In addition, the target 10 achieved better results than those afforded by from the standard 5-fluorouracil. Moreover, the level of caspase-7 was elevated in treated cells with the target 10 rather than that with 5-fluorouracil or the untreated cells as shown in Figure 4.
Bax protein levels picogram per ml (Pg/mL) were evaluated according to previously reported procedure. Monoclonal antibody, specific to Bax captured on the plate, was added. After incubation, Streptavidin conjugated to Horseradish peroxidase was added. The reaction was then terminated by adding acid and optical density of the color produced measured at 450 nm.
(§2) Figure 4 Levels of Bax, Bcl-2, Bax/Bcl-2 ratio, cytochrome c and caspase-7 protein in MCF-7 cells after treatment with compound 10 and the standard drug for 24 h compared with the untreated one, 5-flu: 5-fluorouracil as a reference drug.

[2] = test system: human colon cell line (HCT-116 cell lines); assay: MTT cytotoxicity assay, HCT-116; assay type: cell-based; details: HCT-116, 48 h
Method: (§3) The synthesized compounds were studied for their cytotoxic activity against several human cancer cell lines, namely human osteosarcoma (HOS cell lines), human breast adenocarcinoma (MDA-MB-231 cell lines), human breast cancer (MCF-7 cell lines), human colorectal adenocarcinoma (Caco-2 cell lines) and human colon cell line (HCT-116 cell lines) using MTT assay at 100 µM, and the results were outlined as shown in Table 1.
(§4) Human osteosarcoma (HOS cell line), human breast adenocarcinoma (MDA-MB-231cell lines), human breast cancer (MCF-7 cell lines), human colorectal adenocarcinoma (Caco2 cell lines), human colon cell line (HCT-116 cell lines), normal human cell lines (BJ-1), and “a telomerase immortalized normal foreskin fibroblast cell line” were obtained from Karolinska Center, Department of Oncology and Pathology, Karolinska Institute and Hospital, Stockholm, Sweden.
(§5) Following culturing for 10 days, the cells were seeded at concentration of 10 × 10^3 cells per well in case of MCF-7 & MDA, 20 × 10^3 cells/well in a fresh complete growth medium in case of HCT-116, Caco2, & HOS and 40 × 10^3 cells/well in case of BJ-1 at 37 °C for 24 h in a water jacketed carbon dioxide incubator. After 48 h’ incubation, the medium was aspirated, and then 40 μl MTT salt (2.5 mg/mL) were added for a further 4 h; 200 μl 10% sodium dodecyl sulphate (SDS) in deionized water were added to each well and incubated overnight at 37 °C. The absorbance was measured at 595 nm with reference 690 nm. Doxorubicin was used as positive control, and 0.5% DMSO was used as negative control. IC50 values were calculated, using a probit analysis, and by utilizing the SPSS computer program (SPSS for Windows, statistical analysis software package/version 9/1989 SPSS Inc., Chicago, IL, USA).

[3] = test system: MCF-7 cells; assay: Apoptosis detection, Annexin V-FITC flow cytometry; assay type: cell-based, human
Method: (§6) Cell cycle analysis and apoptosis detection were carried out by flow cytometry. MCF-7 cells were seeded at 1–5 × 10^4 and incubated at 37 °C, 5% CO2 overnight. After treatment with the tested compound 10, for 24 h, cell pellets were collected and centrifuged (300× g, 5 min). For cell cycle analysis, cell pellets were fixed with 70% ethanol on ice for 15 min and collected again [54]. The collected pellets were incubated with propidium iodide (PI) staining solution at room temperature for 1 h. Apoptosis detection was performed by Annexin V-FITC apoptosis detection kit (BioVision, Inc, Milpitas, CA, USA) following the manufacturer’s protocol. The samples were analyzed using FACS Calibur flow cytometer (BD Biosciences, San Jose, CA).
(§7) Figure 5 Cell cycle analysis and the effect of the target 10 on the percentage of V-FITC-positive annexin staining in MCF-7 cells in comparison with the control. TEXT PRINTED IN THE PICTURE: (C) cpd10: MCF7: 6.07%; MCF7: 18.11%; MCF7: 25.44% | (D) cpd10: MCF7: %DIP G1 41.96%; MCF7: %DIP G2/M 6.61%; MCF7: %DIP S 51.43%

[4] = test system: MCF-7 cells; assay: Cell cycle analysis, PI flow cytometry; assay type: cell-based, human
Method: as §6, §7

[5] = test system: cytochrome c in MCF-7 cells; assay: Cytochrome c release in MCF-7 cells (ELISA); assay type: cell-based, human; details: MCF-7, 19.6 µM (IC50), 24 h; untreated 0.176
Method: as §1
Cytochrome c specific antibodies have been precoated onto 96-well plates. Cytochrome c were analyzed by enzyme-linked immunosorbent assays (ELISAs) using commercial kits (ab119521; Abcam, Cambridge, MA, USA). The optimal dilutions were determined, and ELISAs were performed according to the manufacturer’s instructions.
as §2

[6] = target: VEGFR-2 (Homo sapiens, UniProt P35968); assay: VEGFR-2 inhibitory assay (ELISA); assay type: biochemical; details: mean of three values; read-out: IC50 (Mean ± SEM), VEGFR-2
Method: The cells were harvested, and the homogenates were prepared in saline using a tight pestle homogenizer until complete cell disruption. The kit uses a double-antibody sandwich enzyme-linked immunosorbent assay (ELISA) to determine the level of human VEGFR-2 in samples. A monoclonal antibody for VEGFR-2 was pre-coated onto 96-well plates. The test samples are added to the wells, and a biotinylated detection polyclonal antibody from goat specific for VEGFR-2 was added subsequently followed by washing with PBS buffer. Avidin-Biotin-Peroxidase complex was added, and the unbound conjugates were washed away with PBS buffer. HRP substrate TMB was used to visualize HRP enzymatic reaction. TMB was catalyzed by HRP to produce a blue color product that changed into yellow after adding acidic stop solution. The density of yellow color is proportional to the human VEGFR-2 amount of the sample captured in the plate. The chroma of color and the concentration of the human VEGFR-2 of the samples were positively correlated, and the optical density was determined at 450 nm. The level of human VEGFR-2 in samples was calculated (pg/ml) as duplicate determinations from the standard curve. Percent inhibition was calculated in comparison to control untreated cells.

[7] = test system: human osteosarcoma (HOS cell lines); assay: MTT cytotoxicity assay, HOS; assay type: cell-based; details: 48 h
Method: as §3, §4, §5

Chain of VEGFR-2 (P35968 20-1356): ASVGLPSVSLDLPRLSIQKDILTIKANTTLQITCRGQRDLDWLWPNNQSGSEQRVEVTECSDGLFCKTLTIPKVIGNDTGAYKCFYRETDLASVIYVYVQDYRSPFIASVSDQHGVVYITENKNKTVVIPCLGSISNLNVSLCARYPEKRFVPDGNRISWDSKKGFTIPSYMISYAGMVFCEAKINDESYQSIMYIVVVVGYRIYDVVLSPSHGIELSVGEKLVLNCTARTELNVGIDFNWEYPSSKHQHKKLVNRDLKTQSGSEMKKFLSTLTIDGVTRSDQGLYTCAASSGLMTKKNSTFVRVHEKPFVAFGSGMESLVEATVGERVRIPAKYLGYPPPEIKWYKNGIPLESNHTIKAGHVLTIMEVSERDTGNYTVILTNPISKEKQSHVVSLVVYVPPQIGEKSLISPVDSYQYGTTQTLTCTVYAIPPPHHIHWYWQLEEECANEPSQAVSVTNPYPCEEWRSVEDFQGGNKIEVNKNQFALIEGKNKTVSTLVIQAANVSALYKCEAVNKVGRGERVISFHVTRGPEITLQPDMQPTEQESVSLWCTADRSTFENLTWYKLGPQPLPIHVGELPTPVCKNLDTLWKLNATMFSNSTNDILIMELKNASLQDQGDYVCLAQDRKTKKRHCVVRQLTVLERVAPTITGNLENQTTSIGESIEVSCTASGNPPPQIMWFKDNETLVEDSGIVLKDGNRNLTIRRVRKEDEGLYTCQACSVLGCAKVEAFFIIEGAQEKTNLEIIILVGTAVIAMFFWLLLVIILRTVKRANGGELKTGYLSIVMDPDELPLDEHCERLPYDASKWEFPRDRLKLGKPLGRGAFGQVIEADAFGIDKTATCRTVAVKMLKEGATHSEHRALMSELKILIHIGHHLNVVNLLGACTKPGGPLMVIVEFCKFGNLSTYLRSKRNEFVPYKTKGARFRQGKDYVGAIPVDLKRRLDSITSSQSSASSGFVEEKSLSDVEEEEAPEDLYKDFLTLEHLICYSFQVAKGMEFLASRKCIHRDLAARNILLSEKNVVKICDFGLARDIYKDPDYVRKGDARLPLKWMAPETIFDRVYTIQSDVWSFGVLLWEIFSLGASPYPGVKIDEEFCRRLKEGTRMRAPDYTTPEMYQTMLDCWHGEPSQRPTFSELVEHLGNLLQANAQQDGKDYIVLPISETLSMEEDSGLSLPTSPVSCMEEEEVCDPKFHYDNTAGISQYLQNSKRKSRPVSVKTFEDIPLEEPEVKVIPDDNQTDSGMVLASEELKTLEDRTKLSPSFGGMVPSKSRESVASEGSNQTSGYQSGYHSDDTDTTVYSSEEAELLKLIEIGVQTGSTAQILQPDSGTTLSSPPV

SMILES: CCn1c(COc2ccc3c(-c4ccccc4)cc(=O)oc3c2)nnc1SC1OCC(O)C(O)C1O [Compound 10, 4-Phenyl-7-((4-ethyl-5-(1-(β-D-xylopyranosyl)thio)-4H-1,2,4-triazol-3-yl)meth-oxy)-2H-chromen-2-one]
- Upregulation of pro-apoptotic Bax protein versus untreated cells [1]: 4 folds
- cytotoxicity at 100 µM [2]: 27.2 ± 0.7%
- Secondary late apoptosis ([3]; MCF-7, 19.6 µM (IC50), 24 h, untreated 0.18): 18.11%
- Early apoptosis ([3]; MCF-7, 19.6 µM (IC50), 24 h, untreated 0.47): 25.44%
- Annexin V-FITC staining, third percentage not named in the picture text ([3]; MCF-7, Figure 5C): 6.07%
- Increase in the cell percentage at the S phase versus untreated ([4]; MCF-7, 19.6 µM (IC50), 24 h): 1.7 fold
- Cell percentage at the S phase ([4]; MCF-7, 19.6 µM (IC50), 24 h, untreated 29.63%): 51.43%
- %DIP G1 ([4]; MCF-7, Figure 5D): 41.96%
- %DIP G2/M ([4]; MCF-7, Figure 5D): 6.61%
- Cytochrome c released into the cytosol [5]: 0.766 ng/mL
- IC50 [6]: 790 ± 140 nM
- cytotoxicity at 100 µM [7]: 5.3 ± 0.2%
